Some test systems named below: OVCAR-5 ovarian; OVCAR-8 ovarian; SW-620 colon; K-562 leukemia; UACC-62 melanoma; TK-10 renal; OVCAR-4 ovarian; MALME-3M melanoma; HCC-2998 colon; HOP-92 NSCLC.
Assay in all cases: NCI-60 cell line screen, 48 h

Structures are written as SMILES.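 Five compound concentrations were applied to cells in 96-well plates for 48 hours; endpoints were derived by simple linear interpolation of the resulting dose-response curve. GI50 = concentration required for 50% inhibition of growth. Definition used: TGI = concentration required for complete inhibition of growth.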

On to `Cc1ccc(NCSc2ccc(Cl)cc2)cc1`, for which the GI50 in the test with OVCAR-5 ovarian was over 100 µM; in the test with OVCAR-8 ovarian, over 100 µM; with SW-620 colon, over 100 µM; with K-562 leukemia, over 100 µM; in the test with UACC-62 melanoma it was 87.2 µM; in the test on TK-10 renal, 51.8 µM. In addition, the GI50 is 5.06 µM in the test on OVCAR-4 ovarian, over 100 µM in the test on MALME-3M melanoma and over 100 µM in the test on HCC-2998 colon. Besides, the TGI in the test on OVCAR-5 ovarian, with OVCAR-8 ovarian, in the test on SW-620 colon, in the test on K-562 leukemia, in the test with UACC-62 melanoma and with TK-10 renal was over 100 µM throughout. The TGI in the test on OVCAR-4 ovarian, with MALME-3M melanoma and in the test on HCC-2998 colon was over 100 µM each time.

For `Oc1cccc(-c2nc3ccccc3s2)c1`, the TGI was 51.5 µM with OVCAR-5 ovarian; over 100 µM in the test with OVCAR-8 ovarian; over 100 µM with SW-620 colon; over 100 µM in the test with K-562 leukemia; over 100 µM in the test on UACC-62 melanoma; over 100 µM in the test on HOP-92 NSCLC. The TGI in the test on OVCAR-4 ovarian is over 100 µM; in the test on MALME-3M melanoma, 31.1 µM.

As for `COc1ccc2cccc(C(=N)c3ccc(C)c4c3CCC4)c2c1`, the TGI stood at 18.9 µM with OVCAR-5 ovarian; 24 µM in the test with OVCAR-8 ovarian; 18.7 µM in the test with SW-620 colon; 10.8 µM with K-562 leukemia; 15.8 µM in the test on UACC-62 melanoma; 24.2 µM with TK-10 renal. The TGI with OVCAR-4 ovarian stood at 24.9 µM; with MALME-3M melanoma, 18.1 µM; with HCC-2998 colon, 23.1 µM.

On to `Brc1ccc2c(c1)C1(c3cc(Br)ccc3-2)c2cc(Br)ccc2-c2ccc(Br)cc21`, for which the TGI in the test on OVCAR-5 ovarian, with OVCAR-8 ovarian, in the test on SW-620 colon, in the test on K-562 leukemia, in the test with UACC-62 melanoma and in the test on TK-10 renal was over 100 µM in each case. For the same compound, the TGI with OVCAR-4 ovarian, in the test with MALME-3M melanoma and with HCC-2998 colon was over 100 µM in each case.

Turning to `COc1ccc([Se]c2ccc(OC)cc2OC)c(OC)c1`, the TGI in the test on OVCAR-5 ovarian was over 100 µM; in the test on OVCAR-8 ovarian it was over 100 µM; in the test with SW-620 colon, over 100 µM; in the test with K-562 leukemia, over 100 µM; in the test on UACC-62 melanoma, over 100 µM; in the test on HOP-92 NSCLC it was 16.3 µM. In addition, the TGI in the test with TK-10 renal, with OVCAR-4 ovarian and with MALME-3M melanoma was over 100 µM each time.

On to `COC(=O)c1c(C)oc2ccc(OC(C)=O)cc12`, for which the TGI with OVCAR-5 ovarian, in the test on OVCAR-8 ovarian, in the test with SW-620 colon, with K-562 leukemia, with UACC-62 melanoma and in the test with TK-10 renal was over 100 µM in each case. Besides, the TGI with OVCAR-4 ovarian, in the test with MALME-3M melanoma and in the test on HCC-2998 colon was over 100 µM throughout.

Turning to `C[C@@H](NC(=O)Cc1cc(F)cc(F)c1)C(=O)N[C@@]1(C)N=C(c2ccccc2)c2ccccc2N(C)C1=O`, the GI50 in the test on OVCAR-5 ovarian is over 83.5 µM; in the test with OVCAR-8 ovarian, 65.1 µM; in the test with SW-620 colon, 94.4 µM; with K-562 leukemia it was 32.6 µM; with UACC-62 melanoma it was 32.4 µM; in the test on HOP-92 NSCLC it was 19.8 µM. Besides, the GI50 with TK-10 renal is 31.2 µM; in the test with OVCAR-4 ovarian, over 100 µM; with MALME-3M melanoma it was over 60.8 µM. Further, the TGI is over 100 µM with OVCAR-5 ovarian; over 100 µM with OVCAR-8 ovarian; over 100 µM with SW-620 colon; over 94.1 µM with K-562 leukemia; over 89 µM in the test with UACC-62 melanoma; over 67.7 µM in the test on HOP-92 NSCLC. Moreover, the TGI with TK-10 renal was over 88.8 µM; with OVCAR-4 ovarian it was over 100 µM; in the test with MALME-3M melanoma it was over 100 µM.

`CC1(CC(=O)O)OC2CCCCCC2O1` (centres undefined) (tested in a mixture with another compound): the TGI in the test on OVCAR-5 ovarian, with OVCAR-8 ovarian, in the test on SW-620 colon, with K-562 leukemia, with UACC-62 melanoma and with HOP-92 NSCLC was over 100 µM each time. The TGI in the test on TK-10 renal, in the test with OVCAR-4 ovarian and with MALME-3M melanoma was over 100 µM throughout.

For `CC1OC(=O)N(CCCC=C2SCCCS2)C1=O` (centres undefined), the TGI in the test on OVCAR-5 ovarian, in the test on OVCAR-8 ovarian, with SW-620 colon, in the test with K-562 leukemia, in the test with UACC-62 melanoma and in the test with HOP-92 NSCLC was over 100 µM throughout. The TGI with TK-10 renal, with OVCAR-4 ovarian and with MALME-3M melanoma was over 100 µM each time.

Turning to `CC(CS(=O)(=O)Cc1ccccc1)C(N)=O` (centres undefined), the TGI with OVCAR-5 ovarian, in the test with OVCAR-8 ovarian, with SW-620 colon, in the test on K-562 leukemia, with UACC-62 melanoma and in the test on HOP-92 NSCLC was over 100 µM in each case. Besides, the TGI in the test with TK-10 renal, in the test with OVCAR-4 ovarian and in the test on MALME-3M melanoma was over 100 µM each time.

In the case of `CCOC(=O)c1cnc2[nH]c(=O)c3ccccc3n2c1=O`, the TGI in the test with OVCAR-5 ovarian, with OVCAR-8 ovarian, in the test on SW-620 colon, in the test on K-562 leukemia, with UACC-62 melanoma and in the test with HOP-92 NSCLC was over 100 µM throughout. In addition, the TGI in the test on TK-10 renal, with OVCAR-4 ovarian and in the test with MALME-3M melanoma was over 100 µM in each case.

For `c1ccc2c(c1)CCCc1cc3ccccc3nc1-2`, the TGI in the test on OVCAR-5 ovarian, with OVCAR-8 ovarian, with SW-620 colon, in the test on K-562 leukemia, in the test on UACC-62 melanoma and in the test on TK-10 renal was over 100 µM each time. Also, the TGI with OVCAR-4 ovarian, with MALME-3M melanoma and in the test with HCC-2998 colon was over 100 µM throughout.

Regarding `Cc1c(C(C)C)cc(OCCO)cc1C(C)C`, the TGI was over 100 µM in the test with OVCAR-5 ovarian; over 100 µM in the test with OVCAR-8 ovarian; over 100 µM in the test with SW-620 colon; over 100 µM with K-562 leukemia; over 100 µM in the test with UACC-62 melanoma; 57 µM in the test on HOP-92 NSCLC. For the same compound, the TGI with TK-10 renal, with OVCAR-4 ovarian and in the test with HCC-2998 colon was over 100 µM throughout.

The values are drawn from PubChem BioAssay (NCI).
